In patent US10633419B2, “Immunomodulators” (BRISTOL-MYERS SQUIBB COMPANY, priority 2014, dated 2020) one finds IC50 data, which are given here for 13 compounds.

Starred links: 1 amine or outer side, 2 acyl side, 3 side chain; linkers in the order of their positions; H or OH if unused. Positions of bridges follow the written chain, without caps; N, C: chain ends. Non-standard residues stand in square brackets, D forms with d. Residues, ends and D or L forms follow the SMILES beside them. ξ: configuration not given here. *: point of attachment. X29 = O=C(O)CCCCCCCCCCCCCCCCC(=O)N[C@H](CCC(=O)NCCCC[C@@H](NC(=O)NCC(=O)[C@H](CSCC(=O)[*:1])N[*:2])C(=O)O)C(=O)O; X31 = CCCCCCCCCCCCCCCC(=O)NCCCC[C@H](NC(=O)[C@H](CC(=O)O)CC(=O)CCOCCOCCOCCOCCOCCOCCN*)C(N)=O; X4 = O=C(O)CCCCCCCCCCCCCCCCC(=O)N[C@@H](CC(=O)NCCCOCCOCCOCCCN*)C(=O)O; Trp(1-CH2COOH) = N[C@@H](Cc1cn(CC(=O)O)c2ccccc12)C(=O)O; X8 = O=C(O)CCCCCCCCCCCCNC(=O)CCC(=O)NCCCOCCOCCOCCCN*; X14 = O=C(O)CCCCCCCCCCNC(=O)CCC(=O)NCCCOCCOCCOCCCN*; d(cisHyp) = O=C(O)[C@H]1C[C@@H](O)CN1; Gly(octyl) = CCCCCCCC[C@H](N)C(=O)O; Palmitoyl = CCCCCCCCCCCCCCCC(=O)*; Hyp = O=C(O)[C@@H]1C[C@@H](O)CN1; dHyp = O=C(O)[C@H]1C[C@H](O)CN1; NMeNle = CCCC[C@H](NC)C(=O)O; Dap(Me) = CNC[C@H](N)C(=O)O; Pip = O=C(O)[C@@H]1CCCCN1; NMeA = CN[C@@H](C)C(=O)O; Pra = C#CC[C@H](N)C(=O)O; Aun = NCCCCCCCCCCC(=O)O; Dab = NCC[C@H](N)C(=O)O; Dap = NC[C@H](N)C(=O)O; ξC = NC(CS)C(=O)O

The first assay deals with T1, PD-L1 (Homo sapiens, UniProt Q9NZQ7).
T1 construct: hPDL1(19-239)-TVMV-His; made in house; host or cells: HEK293T
T1 sequence (Q9NZQ7 with tags, fused parts or gaps): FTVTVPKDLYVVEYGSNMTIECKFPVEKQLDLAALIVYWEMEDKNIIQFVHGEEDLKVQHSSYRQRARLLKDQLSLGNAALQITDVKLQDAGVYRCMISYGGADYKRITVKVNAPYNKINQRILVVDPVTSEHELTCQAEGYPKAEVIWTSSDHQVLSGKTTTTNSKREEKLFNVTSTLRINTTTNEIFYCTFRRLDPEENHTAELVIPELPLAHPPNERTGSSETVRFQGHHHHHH
Kind of assay: PD-1/PD-L1 Homogenous Time-Resolved Fluorescence (HTRF) binding assay (PD-1-Ig/PD-L1-His).
Conditions: not given
In outline: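 Inhibitors pre-incubated 15 min with PD-L1-His (10 nM final), then PD-1-Ig (20 nM final) added for 15 min in dPBS/0.1% BSA/0.05% Tween-20. Eu-cryptate anti-Ig (1 nM) and APC anti-His (20 nM) added, 30 min equilibration, 665/620 nm HTRF ratio read.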
Background: Time-resolved FRET reads energy transfer from a long-lived donor to a nearby acceptor.
`CCCC[C@H]1C(=O)N(C)[C@@H](CCCC)C(=O)N[C@@H](CCCNC(=N)N)C(=O)N[C@H](C(=O)NCC(=O)N[C@@H](Cc2cn(CCCCCNC(=O)CCC(=O)Oc3c(C)c(C)c4c(c3C)CC[C@@](C)(CCC[C@H](C)CCC[C@H](C)CCCC(C)C)O4)nn2)C(N)=O)CSCC(=O)N[C@@H](Cc2ccc(O)cc2)C(=O)N(C)[C@@H](C)C(=O)N[C@@H](CC(N)=O)C(=O)N2CCC[C@H]2C(=O)N[C@@H](CN)C(=O)N[C@@H](CC(C)C)C(=O)N2C[C@H](O)C[C@H]2C(=O)N[C@@H](Cc2c[nH]c3ccccc23)C(=O)N[C@@H](CO)C(=O)N[C@@H](Cc2csc3ccccc23)C(=O)N1C` [Example 14058]: the IC50 (in general, the midpoint of a concentration-inhibition curve) fell in the range of 100 to 1600 nM.

Staying with this assay, now noted: inhibition of PD-1-Ig binding to PD-L1-TVMV-His; value given as range class; read-out: HTRF IC50.
Turning to `CCCC[C@H]1C(=O)N(C)[C@@H](CCCC)C(=O)N[C@@H](CC(C)C)C(=O)N[C@H](C(=O)NCCCOCCOCCOCCCNC(=O)CCC(=O)NCCCCCCCCCCC(=O)O)CSCC(=O)N[C@@H](Cc2ccc(O)cc2)C(=O)N(C)[C@@H](C)C(=O)N[C@@H](CC(N)=O)C(=O)N2CCC[C@H]2C(=O)N[C@@H](CO)C(=O)N[C@@H](CCC(N)=O)C(=O)N2C[C@H](O)C[C@H]2C(=O)N[C@@H](Cc2c[nH]c3ccccc23)C(=O)N[C@@H](CO)C(=O)N[C@@H](Cc2cn(CC(=O)O)c3ccccc23)C(=O)N1C` [Example 11083] ({CH2CO}-Y[NMeA]NPSQ[Hyp]WS[Trp(1-CH2COOH)][NMeNle][NMeNle]LC-X14; thioether N-14), the IC50 lay within 10 to 99 nM. As to `CCCCCCCCCCCCCCCC(=O)NCCCC[C@H](NC(=O)[C@H](CO)NC(=O)CNC(=O)[C@H](CO)NC(=O)CNC(=O)[C@@H]1CSCC(=O)N[C@@H](Cc2ccc(O)cc2)C(=O)N(C)[C@@H](C)C(=O)N[C@@H](CC(N)=O)C(=O)N2CCC[C@H]2C(=O)N[C@@H](CCN)C(=O)N[C@@H](CC(C)C)C(=O)N2C[C@H](O)C[C@H]2C(=O)N[C@@H](Cc2c[nH]c3ccccc23)C(=O)N[C@@H](CO)C(=O)N[C@@H](Cc2c[nH]c3ccccc23)C(=O)N(C)[C@@H](CCCC)C(=O)N(C)[C@@H](CCCC)C(=O)N[C@@H](CCCNC(=N)N)C(=O)N1)C(N)=O` [Example 11023] ({CH2CO}-Y[NMeA]NP[Dab]L[Hyp]WSW[NMeNle][NMeNle]RCGSGSK(Palmitoyl)-NH2; thioether N-14), the IC50 lay within 100 to 1600 nM. Still for that read-out and setting: then `CCCC[C@H]1C(=O)N(C)[C@@H](CCCC)C(=O)N[C@@H](CC(C)C)C(=O)N[C@@H](C(=O)NCC(=O)N[C@@H](CC(=O)O)C(=O)NCCCOCCOCCOCCCNC(=O)C[C@H](NC(=O)CCCCCCCCCCCCCCCCC(=O)O)C(=O)O)CSCC(=O)N[C@@H](Cc2ccc(O)cc2)C(=O)N(C)[C@@H](C)C(=O)N[C@@H](CC(N)=O)C(=O)N2CCC[C@@H]2C(=O)N[C@@H](CN)C(=O)N[C@@H](CC(C)C)C(=O)N2C[C@@H](O)C[C@@H]2C(=O)N[C@@H](Cc2c[nH]c3ccccc23)C(=O)N[C@@H](CCN)C(=O)N[C@@H](Cc2cn(CC(=O)O)c3ccccc23)C(=O)N1C` [Example 11237] ({CH2CO}-Y[NMeA]N[dP][Dap]L[dHyp]W[Dab][Trp(1-CH2COOH)][NMeNle][NMeNle]L[dC]GD-X4; thioether N-14), with 10 to 99 nM. `CCCCCCCCCCCCCCCC(=O)NCCCC[C@H](NC(=O)[C@H](CC(=O)O)CC(=O)CCOCCOCCOCCOCCOCCOCCNC(=O)[C@H](CC(=O)O)NC(=O)CNC(=O)C1CSCC(=O)N[C@@H](Cc2ccc(O)cc2)C(=O)N(C)[C@@H](C)C(=O)N[C@@H](CC(=O)O)C(=O)N2CCC[C@H]2C(=O)N[C@@H](Cc2cnc[nH]2)C(=O)N[C@@H](CC(C)C)C(=O)N2C[C@H](O)C[C@H]2C(=O)N[C@@H](Cc2c[nH]c3ccccc23)C(=O)N[C@@H](CO)C(=O)N[C@@H](Cc2c[nH]c3ccccc23)C(=O)N(C)[C@@H](CCCC)C(=O)N(C)[C@@H](CCCC)C(=O)N[C@@H](CCCNC(=N)N)C(=O)N1)C(N)=O` (stereo partly shown) [Example 11018] ({CH2CO}-Y[NMeA]DPHL[Hyp]WSW[NMeNle][NMeNle]R[ξC]GD-X31; thioether N-14): the IC50 is 10 to 99 nM. Consider `CCCC[C@H]1C(=O)N(C)[C@@H](CCCC)C(=O)N[C@@H](CC(C)C)C(=O)N[C@H](C(=O)CNC(=O)N[C@H](CCCCNC(=O)CC[C@@H](NC(=O)CCCCCCCCCCCCCCCCC(=O)O)C(=O)O)C(=O)O)CSCC(=O)N[C@@H](Cc2ccc(O)cc2)C(=O)N(C)[C@@H](C)C(=O)N[C@@H](CC(N)=O)C(=O)N2CCC[C@H]2C(=O)N[C@@H](CN)C(=O)N[C@@H](CC(C)C)C(=O)N2C[C@H](O)C[C@H]2C(=O)N[C@@H](Cc2c[nH]c3ccccc23)C(=O)N[C@@H](CCN)C(=O)N[C@@H](Cc2cn(CC(=O)O)c3ccccc23)C(=O)N1C` [Example 11134] (Y[NMeA]NP[Dap]L[Hyp]W[Dab][Trp(1-CH2COOH)][NMeNle][NMeNle]L; linker N-C via X29), for which the IC50 lay within 10 to 99 nM. `CCCCCCCC[C@H](NC(=O)CNC(=O)CNC(=O)CNC(=O)[C@@H]1CSCC(=O)N[C@@H](Cc2ccc(O)cc2)C(=O)N(C)[C@@H](C)C(=O)N[C@@H](CC(N)=O)C(=O)N2CCC[C@H]2C(=O)N[C@@H](CN)C(=O)N[C@@H](CC(C)C)C(=O)N2C[C@H](O)C[C@H]2C(=O)N[C@@H](Cc2c[nH]c3ccccc23)C(=O)N[C@@H](CCN)C(=O)N[C@@H](Cc2cn(CC(=O)O)c3ccccc23)C(=O)N(C)[C@@H](CCCC)C(=O)N(C)[C@@H](CCCC)C(=O)N[C@@H](CC(C)C)C(=O)N1)C(=O)O` [Example 11103] ({CH2CO}-Y[NMeA]NP[Dap]L[Hyp]W[Dab][Trp(1-CH2COOH)][NMeNle][NMeNle]LCGGG[Gly(octyl)]-OH; thioether N-14): the concentration for half-maximal inhibition (IC50) lay in the range of 10 to 99 nM. As to `CCCC[C@H]1C(=O)N(C)[C@@H](CCCC)C(=O)N[C@@H](CC(C)C)C(=O)N[C@H](C(=O)NCCCOCCOCCOCCCNC(=O)CCC(=O)NCCCCCCCCCCCCC(=O)O)CSCC(=O)N[C@@H](Cc2ccc(O)cc2)C(=O)N(C)[C@@H](C)C(=O)N[C@@H](CC(N)=O)C(=O)N2CCC[C@H]2C(=O)N[C@@H](CN)C(=O)N[C@@H](CC(C)C)C(=O)N2C[C@H](O)C[C@H]2C(=O)N[C@@H](Cc2c[nH]c3ccccc23)C(=O)N[C@@H](CCN)C(=O)N[C@@H](Cc2cn(CC(=O)O)c3ccccc23)C(=O)N1C` [Example 11214] ({CH2CO}-Y[NMeA]NP[Dap]L[Hyp]W[Dab][Trp(1-CH2COOH)][NMeNle][NMeNle]LC-X8; thioether N-14), the IC50 is 10 to 99 nM. On to `CCCC[C@H]1C(=O)N(C)[C@@H](CCCC)C(=O)N[C@@H](CC(C)C)C(=O)N[C@H](C(=O)NCC(=O)NCCCCCCCCCCC(=O)O)CSCC(=O)N[C@@H](Cc2ccc(O)cc2)C(=O)N(C)[C@@H](C)C(=O)N[C@@H](CC(N)=O)C(=O)N2CCC[C@H]2C(=O)N[C@@H](CO)C(=O)N[C@@H](CCC(N)=O)C(=O)N2C[C@H](O)C[C@H]2C(=O)N[C@@H](Cc2c[nH]c3ccccc23)C(=O)N[C@@H](CO)C(=O)N[C@@H](Cc2cn(CC(=O)O)c3ccccc23)C(=O)N1C` [Example 11084] ({CH2CO}-Y[NMeA]NPSQ[Hyp]WS[Trp(1-CH2COOH)][NMeNle][NMeNle]LCG[Aun]-OH; thioether N-14), for which the concentration for half-maximal inhibition (IC50) fell in the range of 10 to 99 nM.

Take `CCCC[C@H]1C(=O)N(C)[C@@H](CCCC)C(=O)N[C@@H](CCCNC(=N)N)C(=O)N[C@H](C(=O)NCC(=O)N[C@@H](CCn2cc(CNC(=O)COCCOCCOC)nn2)C(N)=O)CSCC(=O)N[C@@H](Cc2ccc(O)cc2)C(=O)N(C)[C@@H](C)C(=O)N[C@@H](CC(N)=O)C(=O)N2CCC[C@H]2C(=O)N[C@@H](CN)C(=O)N[C@@H](CC(C)C)C(=O)N2C[C@H](O)C[C@H]2C(=O)N[C@@H](Cc2c[nH]c3ccccc23)C(=O)N[C@@H](CO)C(=O)N[C@@H](Cc2csc3ccccc23)C(=O)N1C` [Example 13052]: the half-inhibitory concentration (IC50) lay in the range of 10 to 99 nM. Still for that read-out and setting: then `CCCC[C@H]1C(=O)N2CCC[C@@H]2C(=O)N[C@@H](CC(=O)O)C(=O)N[C@@H](C(C)C)C(=O)N(C)[C@@H](Cc2ccccc2)C(=O)N[C@@H](CCCN)C(=O)N2CCC[C@@H]2C(=O)N[C@@H](Cc2c[nH]c3ccccc23)C(=O)N[C@@H](Cc2ccc(O)cc2)C(=O)N[C@@H](CC(C)C)C(=O)N[C@H](C(=O)NCC(=O)N[C@@H](Cc2cn(CC[C@H](NC(=O)CCCCCCCCCCCCCCC(=O)O)C(=O)O)nn2)C(N)=O)CSCC(=O)N[C@@H](Cc2cc(F)c(F)c(F)c2)C(=O)N(C)[C@@H](Cc2ccccc2)C(=O)N1C` [Example 14073], with 10 to 99 nM; and `CCCC[C@H]1C(=O)N(C)[C@@H](CCCC)C(=O)N[C@@H](CC(C)C)C(=O)N[C@H](C(=O)NCCCOCCOCCOCCCNC(=O)CCC(=O)NCCCCCCCCCCC(=O)O)CSCC(=O)N[C@@H](Cc2ccc(O)cc2)C(=O)N(C)[C@@H](C)C(=O)N[C@@H](CC(N)=O)C(=O)N2CCC[C@H]2C(=O)N[C@@H](CN)C(=O)N[C@@H](CC(C)C)C(=O)N2C[C@H](O)C[C@@H]2C(=O)N[C@@H](Cc2c[nH]c3ccccc23)C(=O)N[C@@H](CCN)C(=O)N[C@@H](Cc2cn(CC(=O)O)c3ccccc23)C(=O)N1C` [Example 11138] ({CH2CO}-Y[NMeA]NP[Dap]L[d(cisHyp)]W[Dab][Trp(1-CH2COOH)][NMeNle][NMeNle]LC-X14; thioether N-14), with 10 to 99 nM; and `C#CC[C@H](NC(=O)CNC(=O)[C@@H]1CSCC(=O)N[C@@H](Cc2ccc(O)cc2)C(=O)N2CCCC[C@H]2C(=O)N[C@@H](CC(N)=O)C(=O)N2CCC[C@H]2C(=O)N[C@@H](CNC)C(=O)N[C@@H](CC(C)C)C(=O)N2C[C@H](O)C[C@H]2C(=O)N[C@@H](Cc2c[nH]c3ccccc23)C(=O)N[C@@H](CCN)C(=O)N[C@@H](Cc2cn(CC(=O)O)c3ccccc23)C(=O)N(C)[C@@H](CCCC)C(=O)N(C)[C@@H](CCCC)C(=O)N[C@@H](CC(C)C)C(=O)N1)C(=O)O` [INT130AK] ({CH2CO}-Y[Pip]NP[Dap(Me)]L[Hyp]W[Dab][Trp(1-CH2COOH)][NMeNle][NMeNle]LCG[Pra]-OH; thioether N-14), with 0.3 to 9.9 nM.
